According to PubChem BioAssay AID1963447 (Molecular Pharmacology Branch, DTP, NCI, 2024):
Several values for one entry are separate records, joined by “and”; a condition that tells them apart may be missing. Identical values can stand only once.

System: 885512-296-R-J2-PDC complex spheroid growth, % test/control
Test: Anticancer human tumor 885512-296-R-J2-PDC patient-derived breast carcinoma cell line growth inhibition [Asc]
Conditions: for viability, T/C: stronger effect = lower value
In short: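 Tumor cells were grown as multicellular spheroids with stromal HUVEC and mesenchymal stem cells and treated singly or in combination. Concentrations fell in half-log steps from the clinical Cmax, or from 10 microM where none was known.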

[1] = curve of first compound, second compound 0.1 µM
[2] = curve of first compound, second compound 0.316 µM
[3] = curve of first compound, second compound 1 µM
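Also: spheroids exposed to compounds for seven days.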
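For viability, T/C in this document: 100% = DMSO vehicle control wells.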

COc1c(OCCCN2CCOCC2)ccc2c3n(c(=NC(=O)c4cnc(N)nc4)nc12)CCN3 + Cc1c(S(C)(=O)=O)c(-c2cc(F)cc(N3CCN(c4ccc(NS(=O)(=O)c5ccc(NC(CCN6CCC(C(=O)OCCCP(=O)(O)O)CC6)CSc6ccccc6)c(S(=O)(=O)C(F)(F)F)c5)cc4)CC3)c2)c(-c2ccc(Cl)cc2)n1C(C)C
IC50 [1]: 263 nM | IC50 [2]: 255 nM | IC50 [3]: 238 nM | IC50 (curve of first compound, second compound 3.16 µM): 224 nM | IC50 (curve of first compound, second compound 10 µM): 247 nM | viability, T/C (second compound 0.1 µM, first compound 0.00316 µM): 95.2% | viability, T/C (second compound 0.1 µM, first compound 0.01 µM): 87.2% | viability, T/C (second compound 0.1 µM, first compound 0.0316 µM): 95.9% | viability, T/C (second compound 0.1 µM, first compound 0.1 µM): 69.3% | viability, T/C (second compound 0.1 µM, first compound 0.316 µM): 47% | viability, T/C (second compound 0.1 µM, first compound 1 µM): 4.94% | viability, T/C (second compound 0.316 µM, first compound 0.00316 µM): 91.2% | viability, T/C (second compound 0.316 µM, first compound 0.01 µM): 93.5% | viability, T/C (second compound 0.316 µM, first compound 0.0316 µM): 79.3% | viability, T/C (second compound 0.316 µM, first compound 0.1 µM): 79% | viability, T/C (second compound 0.316 µM, first compound 0.316 µM): 43.2% | viability, T/C (second compound 0.316 µM, first compound 1 µM): 5.3% | viability, T/C (second compound 1 µM, first compound 0.00316 µM): 98.8% | viability, T/C (second compound 1 µM, first compound 0.01 µM): 101% | viability, T/C (second compound 1 µM, first compound 0.0316 µM): 84% | viability, T/C (second compound 1 µM, first compound 0.1 µM): 70.2% | viability, T/C (second compound 1 µM, first compound 0.316 µM): 43.9% | viability, T/C (second compound 1 µM, first compound 1 µM): 5.16% | viability, T/C (second compound 3.16 µM, first compound 0.00316 µM): 92.4% | viability, T/C (second compound 3.16 µM, first compound 0.01 µM): 87.5% | viability, T/C (second compound 3.16 µM, first compound 0.0316 µM): 77.5% | viability, T/C (second compound 3.16 µM, first compound 0.1 µM): 73.5% | viability, T/C (second compound 3.16 µM, first compound 0.316 µM): 40% | viability, T/C (second compound 3.16 µM, first compound 1 µM): 5.34% | viability, T/C (second compound 10 µM, first compound 0.00316 µM): 117% | viability, T/C (second compound 10 µM, first compound 0.01 µM): 112% | viability, T/C (second compound 10 µM, first compound 0.0316 µM): 96.2% | viability, T/C (second compound 10 µM, first compound 0.1 µM): 81% | viability, T/C (second compound 10 µM, first compound 0.316 µM): 40.7% | viability, T/C (second compound 10 µM, first compound 1 µM): 4.02%

CCN1C(C(=O)NC23CCC(C(=O)O)(CC2)CC3)C(c2cccc(Cl)c2F)C2(C(=O)Nc3cc(Cl)ccc32)C12CCCCC2 (stereo not given)
viability, T/C (compound 0.00949 µM): 94.5% and 78.9% | viability, T/C (compound 0.0949 µM): 95.6% [middle of 15 runs] | viability, T/C (compound 0.949 µM): 71.9% [middle of 15 runs] | viability, T/C (compound 3 µM): 46.6% [middle of 15 runs] | IC50 (curve of compound): 2830 nM and > 3000 nM

Cc1nc(N2CCC3(CC2)COC(C)C3N)c(CO)nc1Sc1ccnc(N)c1Cl (stereo not given) + CNC(C)C(=O)NC1CN(S(=O)(=O)c2cccc(S(=O)(=O)N3CCC4CCC(C(=O)NC(c5ccccc5)c5ccccc5)N4C(=O)C(NC(=O)C(C)NC)C3)c2)CCC2CCC(C(=O)NC(c3ccccc3)c3ccccc3)N2C1=O
IC50 (curve of first compound, second compound 0.01 µM): 168 nM | IC50 (curve of first compound, second compound 0.0316 µM): 237 nM | IC50 [1]: 201 nM | IC50 [2]: 277 nM | IC50 [3]: 270 nM | viability, T/C (second compound 0.01 µM, first compound 0.00949 µM): 90.9% | viability, T/C (second compound 0.01 µM, first compound 0.03 µM): 73.2% | viability, T/C (second compound 0.01 µM, first compound 0.0949 µM): 54% | viability, T/C (second compound 0.01 µM, first compound 0.3 µM): 45.3% | viability, T/C (second compound 0.01 µM, first compound 0.949 µM): 43.4% | viability, T/C (second compound 0.01 µM, first compound 3 µM): 38.7% | viability, T/C (second compound 0.0316 µM, first compound 0.00949 µM): 90.1% | viability, T/C (second compound 0.0316 µM, first compound 0.03 µM): 77% | viability, T/C (second compound 0.0316 µM, first compound 0.0949 µM): 59.3% | viability, T/C (second compound 0.0316 µM, first compound 0.3 µM): 47.3% | viability, T/C (second compound 0.0316 µM, first compound 0.949 µM): 43.1% | viability, T/C (second compound 0.0316 µM, first compound 3 µM): 39.5% | viability, T/C (second compound 0.1 µM, first compound 0.00949 µM): 102% | viability, T/C (second compound 0.1 µM, first compound 0.03 µM): 91.7% | viability, T/C (second compound 0.1 µM, first compound 0.0949 µM): 60.1% | viability, T/C (second compound 0.1 µM, first compound 0.3 µM): 46.3% | viability, T/C (second compound 0.1 µM, first compound 0.949 µM): 39.9% | viability, T/C (second compound 0.1 µM, first compound 3 µM): 39.9% | viability, T/C (second compound 0.316 µM, first compound 0.00949 µM): 120% | viability, T/C (second compound 0.316 µM, first compound 0.03 µM): 107% | viability, T/C (second compound 0.316 µM, first compound 0.0949 µM): 70.3% | viability, T/C (second compound 0.316 µM, first compound 0.3 µM): 50.4% | viability, T/C (second compound 0.316 µM, first compound 0.949 µM): 41.8% | viability, T/C (second compound 0.316 µM, first compound 3 µM): 38.9% | viability, T/C (second compound 1 µM, first compound 0.00949 µM): 114% | viability, T/C (second compound 1 µM, first compound 0.03 µM): 112% | viability, T/C (second compound 1 µM, first compound 0.0949 µM): 71.8% | viability, T/C (second compound 1 µM, first compound 0.3 µM): 52.7% | viability, T/C (second compound 1 µM, first compound 0.949 µM): 41.1% | viability, T/C (second compound 1 µM, first compound 3 µM): 38.7%
